Reference: the supplement of paper PMC10307832

How the values were obtained:
Experiment in all cases: relative viability (nuclei count vs DMSO), 5 days (fraction); higher = more cells survive
GSK-J4 + Luminespib = compound: CCOC(=O)CCNc1cc(N2CCc3ccccc3CC2)nc(-c2ccccn2)n1 [GSK-J4] + CCNC(=O)c1noc(-c2cc(C(C)C)c(O)cc2O)c1-c1ccc(CN2CCOCC2)cc1 [Luminespib] (partner 0.01 µM)
Outline: (§1)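 Lung cancer cell lines, seeded in 1536-well plates, were treated the following day by pin tool with a single drug or with five library-drug doses (not always all listed) in √10 steps on top of a fixed anchor-drug dose. Cells were fixed and nuclei stained in one step after 5 days, and nuclei were counted. Relative viability is the nuclei count for treated wells divided by that for vehicle wells, reported as medians of duplicate plates.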

AZ3146 + Pictilisib = compound: CN1CCC(CC1)OC2=CC(=C(C=C2)NC3=NC=C4C(=N3)N(C(=O)N4C)C5CCCC5)OC [AZ3146] + CS(=O)(=O)N1CCN(Cc2cc3nc(-c4cccc5[nH]ncc45)nc(N4CCOCC4)c3s2)CC1 [Pictilisib] (partner 1 µM)
Outline: as §1

GSK-J4 + Trametinib = compound: CCOC(=O)CCNc1cc(N2CCc3ccccc3CC2)nc(-c2ccccn2)n1 [GSK-J4] + CC(=O)Nc1cccc(-n2c(=O)n(C3CC3)c(=O)c3c(Nc4ccc(I)cc4F)n(C)c(=O)c(C)c32)c1 [Trametinib] (partner 0.02 µM)
Outline: as §1

AZ3146 + Olaparib = compound: CN1CCC(CC1)OC2=CC(=C(C=C2)NC3=NC=C4C(=N3)N(C(=O)N4C)C5CCCC5)OC [AZ3146] + O=C(c1cc(Cc2n[nH]c(=O)c3ccccc23)ccc1F)N1CCN(C(=O)C2CC2)CC1 [Olaparib] (partner 8 µM)
Outline: as §1

Cell Line	relative viability (GSK-J4 + Luminespib; first compound 0.5 µM)	relative viability (GSK-J4 + Luminespib; first compound 1.581 µM)	relative viability (GSK-J4 + Luminespib; first compound 5 µM)	relative viability (GSK-J4 + Luminespib; first compound 15.81 µM)	relative viability (GSK-J4 + Luminespib; first compound 50 µM)	relative viability (AZ3146 + Pictilisib; first compound 0.08 µM)	relative viability (AZ3146 + Pictilisib; first compound 0.253 µM)	relative viability (AZ3146 + Pictilisib; first compound 0.8 µM)	relative viability (AZ3146 + Pictilisib; first compound 2.53 µM)	relative viability (AZ3146 + Pictilisib; first compound 8 µM)	relative viability (GSK-J4 + Trametinib; first compound 0.5 µM)	relative viability (GSK-J4 + Trametinib; first compound 1.581 µM)	relative viability (GSK-J4 + Trametinib; first compound 5 µM)	relative viability (GSK-J4 + Trametinib; first compound 15.81 µM)	relative viability (GSK-J4 + Trametinib; first compound 50 µM)	relative viability (AZ3146 + Olaparib; first compound 0.08 µM)	relative viability (AZ3146 + Olaparib; first compound 0.253 µM)	relative viability (AZ3146 + Olaparib; first compound 0.8 µM)	relative viability (AZ3146 + Olaparib; first compound 2.53 µM)	relative viability (AZ3146 + Olaparib; first compound 8 µM)
201T	1.05	1.1	1.12	1.02	0.992	0.634	0.643	0.656	0.707	0.596	0.719	0.615	0.711	0.735	0.69	0.855	0.829	0.827	0.874	0.805
A549						0.475	0.503	0.483	0.404	0.139						0.203	0.268	0.419	0.43	0.269
A-427	0.866		0.64	0.681	0.311	0.826	0.626	0.65	0.519	0.675	0.702	0.567		0.559	0.552	0.689	0.813	0.758	0.794	0.652
ABC-1	0.373	0.496	0.594	0.52	0.396	0.566	0.866	0.687	0.878	0.723						0.744	0.707	0.714	0.78	0.606
BEN	0.297	0.373		0.289	0.189		0.51	0.403	0.533	0.573	1.1	0.883	0.88	0.896	0.917		1.07	1.12	0.899	0.917
CAL-12T	0.83	0.549	0.244	0.205	0.518	0.334		0.475	0.554	0.481	0.337	0.314	0.424	0.288	0.254	0.733	0.822	0.717	0.658	0.6
COR-L23	0.581	0.647		0.68	0.514	0.643	0.922	0.824	0.77	0.667	0.461	0.576		0.544	0.429	0.28	0.363	0.353	0.361	0.324
COR-L 105	0.624	0.58	0.702	0.633	1.01	0.38	0.406	0.419	0.356	0.237	0.467		0.46	0.458	0.451	0.654	0.717	0.503	0.696	0.648
Calu-6						0.871	0.984	0.865	0.859	0.515						0.55	0.505	0.535	0.551	0.5
ChaGo-K-1	0.56	0.627	0.594	0.607	0.45	0.746	0.668	0.645	0.824	0.596	0.934		0.939	0.841	0.808	0.352	0.436	0.361	0.421	0.357
EBC-1						0.366	0.412	0.351	0.388	0.244						0.699	0.71	0.671	0.634	0.397
EKVX	0.824	0.725	0.977	0.755	0.811	0.417	0.433	0.259	0.407	0.545	0.337		0.515	0.307	0.21	0.798	0.828	0.811	1.07	0.798
EMC-BAC-2	1.21	1.09	0.985	1.09	0.676	0.524	0.56	0.564	0.607	0.597	0.901	0.819		0.777	0.831	0.407	0.522	0.5	0.531	0.432
EPLC-272H	0.263	0.408	0.346	0.203	0.173	0.274	0.322	0.3	0.263	0.265	0.328	0.251	0.325	0.272	0.232	0.892	0.841	0.878	0.914	0.643
H3255	0.752	0.726	0.693	0.827	0.683	0.514	0.49	0.466	0.507	0.518	0.656		0.53	0.48	0.541	0.498	0.526	0.605	0.564	0.564
HARA	0.585			0.675	0.49	0.264	0.537	0.387	0.594	0.244	0.6	0.799		0.516	0.471	0.618	0.926	0.818	0.924	0.841
HCC-15	0.232		0.304	0.174	0.268	0.721	0.773	0.765	0.737	0.728	0.376	0.377	0.413	0.298	0.272	0.618	0.737	0.726	0.725	0.648
HCC-44	1.02	0.897		0.939	0.747	0.543	0.528	0.815	0.618	0.472	1.1	0.91	1.06	1.04	1.03	0.996	0.991	1.06	0.964	0.942
